Here are results for 1 molecule from patent US12070445B2, “System and assay for monitoring production/release of membrane-lytic toxins in bacteria and compounds for modulating same” (priority 2021, dated 2024).

The subject of this assay is agr. Briefly: agr YFP transcriptional reporter assay (S. aureus AH1677 with pDB59). The format is cell-based. Conditions: Staphylococcus aureus, 24 h, read-out: IC50 in the agr reporter assay. A digest of the protocol:
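S. aureus AH1677 carrying the agr-YFP reporter, diluted 1:50 in BHI with 1:3 compound dilutions, incubated ~24 h at 37 °C with shaking. YFP fluorescence (ex 510/em 544) corrected for BHI background and OD600, normalized to DMSO vehicle. IC50 from 3-parameter regression; technical triplicate, ≥3 biological replicates.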

pIC50: −log10 of the molar value.

As to `CC(C)c1ccc(S(=O)(=O)c2nnn3c2nc(O)c2ccccc23)cc1` [Compound 6, savirin], the pIC50 is 5.26.
